Test results published in ChEMBL document CHEMBL1151347, “Lignans From Justicia flava” (J Nat Prod, 1980).
The source made the active and inactive calls. No cut-off for these calls is given here.

How the values were obtained:
[1] = species: Mus musculus; assay: Effect on central nervous system in mouse assessed as ataxia; format: functional, organism-based
[2] = species: Mus musculus; assay: Effect on central nervous system in mouse assessed as decrease in motor activity; format: functional, organism-based

With `COc1cc([C@H]2c3cc(O)c(OC)cc3C[C@@H](CO)[C@@H]2CO)ccc1O` the Activity [1] was “inactive” and the Activity [2] was “inactive”.

For `O=C1OCc2c1cc1ccc3c(c1c2-c1ccc2c(c1)OCO2)OCO3`, the Activity [1] was “inactive” and the Activity [2] was “inactive”.

`COc1cc(OC)c2c(-c3ccc4c(c3)OCO4)c3c(c(OC)c2c1O)COC3=O` was tested, and the Activity [1] was “inactive” and the Activity [2] was “inactive”.
